From US11840518B2, “Use of bromophenol-pyrazoline compounds for the treatment of feline coronavirus diseases” (Shandong Linghai Biotechnology Co., Ltd., priority 2021, dated 2023)

Legend:
[1] = test system: FIPV wild strain in CRFK cells; experiment: Interference with FIPV replication in infected CRFK cells (qRT-PCR of vRNA in supernatant); type: cell-based, feline infectious peritonitis virus; conditions: 5 μM, CRFK cells infected with wild-type FIPV, 24 hours; FIG. 2
Experimental: To further confirm in vitro enzymatic inhibition results, the inventors evaluated whether the bromophenol-pyrazoline compounds could prevent FIPV replication in clinical wild-type FIPV-infected Crandell-Rees feline kidney (CRFK) cells.
The CRFK cells were cultured with DMEM containing 8% fetal bovine serum in a cell incubator with 5% CO2 at 37° C. When the cells grew to a density of about 80%, the cells were pretreated with 5 μM bromophenol-pyrazoline compounds to be tested for 1 hour, and then an FIPV wild strain (MOI=0.1) was inoculated into the CRFK cells. The CRFK cells inoculated with virus but without the compounds were set up as controls. After 24 hours, a cell supernatant was collected, and vRNA in the supernatant was subject to qRT-PCR analysis.

FIPV = experiment: Clinical trial in cats infected with the FIPV (feline infectious peritonitis); type: in vivo; conditions: for Moderate response: 4-week treatment
Text: Serology or morphology cannot distinguish feline enteric coronavirus from the FIPV. According to the history, epidemiology, clinical symptoms, laboratory diagnosis, imaging examination and histopathological examination, the cats were diagnosed comprehensively after other diseases were ruled out.
Thirty cats infected with the FIPV were divided into a wet FIP group (n=17) and a dry FIP group (n=13) according to presence of significant pleural effusion, ascites, dyspnea and other symptoms (fibrous pleurisy and peritonitis). The wet FIP group (17 cats) was randomly divided into a control group (3 cats), a GS-441524 group (6 cats) and a compound 5 group (8 cats). The dry FIP group (13 cats) was randomly divided into a control group (2 cats), a GS-441524 group (5 cats) and a compound 5 group (6 cats).
For the wet and dry GS-441524 groups: 4.0 mg/kg was administered subcutaneously every 24 hours; and for the wet and dry compound 5 groups: 3 mg/kg was orally administered after dissolved in glucose solution once a day.
Rectal temperature was measured at least once a day, and body weight, respiration, appetite and activity were observed. Special people were arranged to feed the cats, and foodware was washed and disinfected every day. The cats with good appetite were fed with conventional cat food, and high protein pet food can was used as nutritional supplement. The cats with poor appetite were subject to nasal feeding and intravenous injection for nutritional supplement to ensure nutrition intake of the experimental cats. At the same time, defecation and urination were also observed in terms of volume and shape. The cats were examined for blood routine indexes, serum biochemical indicators and abdominal B ultrasound condition according to actual situation.
Cases with good appetite, body weight, respiration, body temperature and other body conditions at the completion of 4-week treatment, and examined for the blood routine indexes and serum biochemical indicators twice (more than 1 week apart) were defined as effective.

FIP = conditions: 4 weeks of continuous treatment at 4 mg/kg; cited from earlier work
[2] = dry FIP group, number of cats (GS-441524 group n=5, 4.0 mg/kg s.c.; compound 5 group n=6, 3 mg/kg oral)
[3] = dry FIP group, number of cats (GS-441524 group n=5; compound 5 group n=6)
[4] = wet FIP group, number of cats (GS-441524 group n=6, 4.0 mg/kg s.c.; compound 5 group n=8, 3 mg/kg oral)
[5] = wet FIP group, number of cats (GS-441524 group n=6; compound 5 group n=8)

COc1ccc(C2=NN(C(N)=S)C(c3cc(O)c(O)c(Br)c3Br)C2)cc1 (stereo not drawn) [Compound 5]
ability to interfere with the FIPV virus replication [1]: strongest ability to inhibit FIPV virus replication | time within which ocular lesions in some cats began to resolve significantly (FIPV; Compound 5 treatment group): ≤ 48 h | treatment time after which normal cat food was given (FIPV; Compound 5 treatment group): 1 days | treatment time after which the body temperature returned to normal and the body weight increased (FIPV; Compound 5 treatment group): 7 days | comparison with the positive drug GS-441524 group (FIPV; compound 5 3 mg/kg oral once a day vs GS-441524 4.0 mg/kg s.c. every 24 hours): faster onset of action, fewer deaths and higher response rate | Clinical manifestations: time within which ocular lesions in some cats began to resolve significantly (FIPV; dry FIP group): 48 hours, and the | Clinical manifestations: treatment time after which normal/ordinary cat food was given (FIPV; dry FIP group): given after 1 day of days | Clinical manifestations: treatment time after which the intake returned to normal (FIPV; dry FIP group): normal after 3 days | Death (FIPV; [2]): 0 | Moderate response (FIPV; [3]): 5 | Clinical manifestations: treatment time after which ascites and dyspnea basically recovered (FIPV; wet FIP group): after 10 days of | Clinical manifestations: treatment time after which the normal cat food was given (FIPV; wet FIP group): After 1 day of treat- | Death (FIPV; [4]): 1 | Moderate response (FIPV; [5]): 6

N#C[C@@]1(c2ccc3c(N)ncnn23)O[C@H](CO)[C@@H](O)[C@H]1O [GS-441524, reference compound]
Clinical manifestations: treatment time after which the food intake recovered (FIPV; dry FIP group): After 3 days of treat- | Death (FIPV; [2]): 0 | Moderate response (FIPV; [3]): 3 | Clinical manifestations: treatment time after which the food intake recovered (FIPV; wet FIP group): After 3 days of treat- | Death (FIPV; [4]): 1 | Moderate response (FIPV; [5]): 3 | cats with the FIP in remission (FIP): about 60%
